Source: the CheMixHub ionic liquid set
± gives the uncertainty stated by the source.

Assay: xn = mol fraction of the nth substance listed

CC[n+]1ccn(C)c1.N#C[N-]C#N + O
Conditions | electrical conductivity [S/m] | viscosity [mPa·s]
288.15 K, 100 kPa, x2 = 0 | – | 20 ± 1.2
288.15 K, 100 kPa, x2 = 0.1016 | – | 17.49 ± 0.96
288.15 K, 100 kPa, x2 = 0.2014 | – | 15.14 ± 0.77
288.15 K, 100 kPa, x2 = 0.2999 | – | 13.02 ± 0.61
288.15 K, 100 kPa, x2 = 0.4015 | – | 11.08 ± 0.45
288.15 K, 100 kPa, x2 = 0.5106 | – | 9.24 ± 0.32
288.15 K, 100 kPa, x2 = 0.5934 | – | 7.86 ± 0.24
288.15 K, 100 kPa, x2 = 0.7465 | – | 5.45 ± 0.13
288.15 K, 100 kPa, x2 = 0.7974 | – | 4.58 ± 0.1
288.15 K, 100 kPa, x2 = 0.9004 | – | 2.76 ± 0.04
288.15 K, 100 kPa, x2 = 0.9498 | – | 1.93 ± 0.03
293.15 K, 100 kPa, x2 = 0 | – | 16.9 ± 1
293.15 K, 100 kPa, x2 = 0.1016 | – | 14.89 ± 0.81
293.15 K, 100 kPa, x2 = 0.2014 | – | 12.98 ± 0.66
293.15 K, 100 kPa, x2 = 0.2999 | – | 11.23 ± 0.52
293.15 K, 100 kPa, x2 = 0.4015 | – | 9.59 ± 0.39
293.15 K, 100 kPa, x2 = 0.5106 | – | 8 ± 0.28
293.15 K, 100 kPa, x2 = 0.5934 | – | 6.83 ± 0.21
293.15 K, 100 kPa, x2 = 0.7465 | – | 4.74 ± 0.11
293.15 K, 100 kPa, x2 = 0.7974 | – | 3.99 ± 0.09
293.15 K, 100 kPa, x2 = 0.9004 | – | 2.41 ± 0.04
293.15 K, 100 kPa, x2 = 0.9498 | – | 1.69 ± 0.02
293.2 K, 101 kPa, x2 = 0.6 | 4.47 ± 0.1 | –
293.2 K, 101 kPa, x2 = 0.8 | 5.69 ± 0.13 | –
298.15 K, 100 kPa, x2 = 0 | – | 14.54 ± 0.88
298.15 K, 100 kPa, x2 = 0.1016 | – | 12.86 ± 0.7
298.15 K, 100 kPa, x2 = 0.2014 | – | 11.23 ± 0.57
298.15 K, 100 kPa, x2 = 0.2999 | – | 9.77 ± 0.46
298.15 K, 100 kPa, x2 = 0.4015 | – | 8.37 ± 0.34
298.15 K, 100 kPa, x2 = 0.5106 | – | 7.01 ± 0.24
298.15 K, 100 kPa, x2 = 0.5934 | – | 5.99 ± 0.19
298.15 K, 100 kPa, x2 = 0.7465 | – | 4.16 ± 0.1
298.15 K, 100 kPa, x2 = 0.7974 | – | 3.5 ± 0.07
298.15 K, 100 kPa, x2 = 0.9004 | – | 2.13 ± 0.03
298.15 K, 100 kPa, x2 = 0.9498 | – | 1.5 ± 0.02
298.15 K, 101 kPa, x2 = 0 | – | 14.9 ± 0.62
298.15 K, 101 kPa, x2 = 0.2248 | – | 11.24 ± 0.46
298.15 K, 101 kPa, x2 = 0.3042 | – | 10.14 ± 0.41
298.15 K, 101 kPa, x2 = 0.4308 | – | 8.39 ± 0.34
298.15 K, 101 kPa, x2 = 0.7944 | – | 3.61 ± 0.15
298.15 K, 101 kPa, x2 = 0.8803 | – | 2.46 ± 0.1
303.15 K, 100 kPa, x2 = 0 | – | 12.63 ± 0.77
303.15 K, 100 kPa, x2 = 0.1016 | – | 11.21 ± 0.61
303.15 K, 100 kPa, x2 = 0.2014 | – | 9.84 ± 0.5
303.15 K, 100 kPa, x2 = 0.2999 | – | 8.59 ± 0.4
303.15 K, 100 kPa, x2 = 0.4015 | – | 7.38 ± 0.3
303.15 K, 100 kPa, x2 = 0.5106 | – | 6.19 ± 0.22
303.15 K, 100 kPa, x2 = 0.5934 | – | 5.29 ± 0.16
303.15 K, 100 kPa, x2 = 0.7465 | – | 3.67 ± 0.09
303.15 K, 100 kPa, x2 = 0.7974 | – | 3.09 ± 0.07
303.15 K, 100 kPa, x2 = 0.9004 | – | 1.89 ± 0.03
303.15 K, 100 kPa, x2 = 0.9498 | – | 1.34 ± 0.02
308.15 K, 100 kPa, x2 = 0 | – | 11.05 ± 0.67
308.15 K, 100 kPa, x2 = 0.1016 | – | 9.86 ± 0.54
308.15 K, 100 kPa, x2 = 0.2014 | – | 8.69 ± 0.44
308.15 K, 100 kPa, x2 = 0.2999 | – | 7.61 ± 0.36
308.15 K, 100 kPa, x2 = 0.4015 | – | 6.55 ± 0.27
308.15 K, 100 kPa, x2 = 0.5106 | – | 5.5 ± 0.19
308.15 K, 100 kPa, x2 = 0.5934 | – | 4.71 ± 0.15
308.15 K, 100 kPa, x2 = 0.7465 | – | 3.27 ± 0.08
308.15 K, 100 kPa, x2 = 0.7974 | – | 2.76 ± 0.06
308.15 K, 100 kPa, x2 = 0.9004 | – | 1.7 ± 0.03
308.15 K, 100 kPa, x2 = 0.9498 | – | 1.2 ± 0.02
308.2 K, 101 kPa, x2 = 0.2 | 3.89 ± 0.08 | –
308.2 K, 101 kPa, x2 = 0.6 | 6.36 ± 0.14 | –
313.15 K, 100 kPa, x2 = 0 | – | 9.76 ± 0.59
313.15 K, 100 kPa, x2 = 0.1016 | – | 8.74 ± 0.48
313.15 K, 100 kPa, x2 = 0.2014 | – | 7.73 ± 0.39
313.15 K, 100 kPa, x2 = 0.2999 | – | 6.79 ± 0.32
313.15 K, 100 kPa, x2 = 0.4015 | – | 5.86 ± 0.24
313.15 K, 100 kPa, x2 = 0.5106 | – | 4.93 ± 0.17
313.15 K, 100 kPa, x2 = 0.5934 | – | 4.23 ± 0.13
313.15 K, 100 kPa, x2 = 0.7465 | – | 2.93 ± 0.07
313.15 K, 100 kPa, x2 = 0.7974 | – | 2.48 ± 0.05
313.15 K, 100 kPa, x2 = 0.9004 | – | 1.53 ± 0.02
313.15 K, 100 kPa, x2 = 0.9498 | – | 1.09 ± 0.02
313.15 K, 101 kPa, x2 = 0.2248 | – | 7.79 ± 0.32
313.15 K, 101 kPa, x2 = 0.8803 | – | 1.73 ± 0.07
313.15 K, 101 kPa, x2 = 0.953 | – | 1.08 ± 0.04
313.2 K, 101 kPa, x2 = 0.2 | 4.32 ± 0.09 | –
313.2 K, 101 kPa, x2 = 0.8 | 8.83 ± 0.19 | –
318.15 K, 100 kPa, x2 = 0 | – | 8.69 ± 0.53
318.15 K, 100 kPa, x2 = 0.1016 | – | 7.79 ± 0.43
318.15 K, 100 kPa, x2 = 0.2014 | – | 6.92 ± 0.35
318.15 K, 100 kPa, x2 = 0.2999 | – | 6.1 ± 0.28
318.15 K, 100 kPa, x2 = 0.4015 | – | 5.27 ± 0.21
318.15 K, 100 kPa, x2 = 0.5106 | – | 4.45 ± 0.16
318.15 K, 100 kPa, x2 = 0.5934 | – | 3.81 ± 0.12
318.15 K, 100 kPa, x2 = 0.7465 | – | 2.64 ± 0.06
318.15 K, 100 kPa, x2 = 0.7974 | – | 2.24 ± 0.05
318.15 K, 100 kPa, x2 = 0.9004 | – | 1.39 ± 0.02
318.15 K, 100 kPa, x2 = 0.9498 | – | 0.99 ± 0.01
318.2 K, 101 kPa, x2 = 0.2 | 4.77 ± 0.1 | –
328.15 K, 101 kPa, x2 = 0.7944 | – | 1.9 ± 0.08
328.2 K, 101 kPa, x2 = 0.2 | 5.74 ± 0.12 | –
338.2 K, 101 kPa, x2 = 0.4 | 8.22 ± 0.17 | –
338.2 K, 101 kPa, x2 = 0.6 | 10.6 ± 0.22 | –
343.15 K, 101 kPa, x2 = 0 | – | 5.48 ± 0.23

CCCC[n+]1ccn(C)c1.F[B-](F)(F)F + NC(N)=O + O
Conditions | viscosity [mPa·s]
298.15 K, 100 kPa, x2 = 0, x3 = 0.9487 | 1.99 ± 0.1

CC1COC(=O)O1 (stereo not given) + CCCCCCCCn1cc[n+](C)c1.F[B-](F)(F)F
Conditions | viscosity [mPa·s]
323.15 K, 99.7 kPa, x1 = 1 | 1.77 ± 0.25
